Legend:
[1] = system: kidney-like microspheres (HUVEC, hMSC, HEK, hMC, HK2); assay type: cell-based, human
Experimental: Kidney-like organoids were produced in vitro by co-culturing endothelial cells (HUVEC), mesenchymal stem cells (hMSC), and human embryonic kidney cells (HEK) with human mesangial cells (hMC) and human renal tubular cells (HK2). 5×10^4 hMSC, 2×10^5 HUVEC, 5×10^4 HEK, 5×10^4 hMC, and 5×10^4 HK 2 were suspended in 2 ml 10% FCS or MSCGM, and seeded in a MicroWell culture plate. After incubation in a 5% CO2 humidified incubator at 37° C. for 24 hours, formation of cell aggregates and microspheres was observed (FIG. 6). The resulting kidney-like microspheres maintained their spherical morphology for 20 days or longer. • 7. Analysis of Gene Expression
RT-PCR analysis was performed on mRNA of kidney-like microspheres using five types of cells. Total RNA was extracted from the spheres using a TRIzol reagent (Invitrogen), and reverse-transcribed with an oligo (dT) primer using a SuperScript First-Strand Synthesis kit (Invitrogen) to produce first-strand cDNA. Subsequently, PCR was performed to detect the expression of renal tubular cell-specific genes, renal tubular injury marker (epithelial-mesenchymal transition (EMT)) genes, and GAPDH. […] The influence of cisplatin was analyzed by adding cisplatin to the culture solution to a final concentration of 5 μM, and extracting RNA after 3 hours and after 24 hours for analysis. […]

[2] = system: three-dimensional kidney-like tissue (embryonic kidney cells, mesenchymal stem cells, vascular endothelial cells); assay: Kidney model (podocyte injury): three-dimensional kidney-like tissue exposed to puromycin, nephrin qRT-PCR; assay type: cell-based; conditions: puromycin 50 μg/ml, 24 hours, qRT-PCR (FIG. 10)
Experimental: Embryonic kidney cells, mesenchymal stem cells, and vascular endothelial cells were co-cultured for 24 hours to obtain a self-organized, three-dimensional kidney-like tissue. The kidney-like tissue was exposed to puromycin at a concentration of 50 μg/ml. After 24 hours, spheres were collected. After extraction of RNA, changes in nephrin gene expression were analyzed by the qRT-PCR method (FIG. 10). […] Using this model allows for screening an effective drug for podocyte injury. • 12. Use as Pathophysiological Analysis System for Human Refractory Renal Disease

[3] = system: three-dimensional kidney-like tissue (embryonic kidney cells, mesenchymal stem cells, proximal renal tubular cells, vascular endothelial cells); assay type: cell-based
Experimental: Embryonic kidney cells, mesenchymal stem cells, proximal renal tubular cells, and vascular endothelial cells were co-cultured for 24 hours to obtain a self-organized, three-dimensional kidney-like tissue (FIG. 9 (A)). This was exposed to cisplatin at a concentration of 5 μM, and spheres were collected after 3 hours and after 24 hours. After extraction of RNA, changes in gene expression were analyzed by the RT-PCR method. After the culture solution of the spheres was collected and cell components were separated by centrifugation, β2 microglobulin was measured with a “Lumipulse Presto β2-M” (produced by Fujirebio, Inc.) kit (FIG. 9 (B)). Further, changes in the shape of the spheres were imaged using an optical microscope (FIG. 9 (C)). […] Use of Microspheres as Kidney Model (Podocyte Injury)

CN(C)C(=N)N=C(N)N [metformin]
abnormal changes in gene expression in acute kidney injury caused by cisplatin ([1]; pre-administration, 3 hours after cisplatin administration (left side of FIG. 7)): inhibited

COc1ccc(C[C@H](N)C(=O)N[C@H]2[C@@H](O)[C@H](n3cnc4c(N(C)C)ncnc43)O[C@@H]2CO)cc1 [puromycin]
podocyte injury (changes in nephrin gene expression) [2]: podocyte injury model, which was conventionally prepared by using mice, can be reproduced

N.N.[Cl][Pt][Cl] [cisplatin]
renal damage reflected by analysis results (gene expression, β2 microglobulin, sphere shape) [3]: renal tubular injury at the acute phase and podocyte injury at the chronic phase | expression of genes constitutively expressed in podocytes [1]: reduction

From patent publication US11685902B2, “Production method for kidney-like tissue” (Tokushima University, priority 2016, dated 2023)
